Measured values reported in publication PMC9395446, “First-in-human phase 1/1b study to evaluate sitravatinib in patients with advanced solid tumors” (Investigational New Drugs, 2022).

Assay: Safety in phase 1/1b study (DLTs, TRAEs, TEAEs; CTCAE v4.03)
Type: in vivo, human
Details: 150 mg phase 1b
Text: Safety assessments included evaluation of DLTs, AEs, physical examinations, vital sign measurements, electrocardiogram recordings and laboratory tests.
A DLT was defined as a grade ≥ 4 hematologic abnormality lasting ≥ 4 days; grade 3 thrombocytopenia with clinically significant bleeding; febrile neutropenia; clinically significant grade ≥ 3 non-hematologic AEs not related to underlying malignancy; intolerable grade 2 AEs; or toxicity resulting in an inability to deliver 80% of the dose during the first treatment cycle.
The safety population included all patients who received ≥ 1 dose of sitravatinib. […] The PK evaluable population included all patients with sufficient concentration-time data for PK parameter evaluation. The modified intent-to-treat (mITT) population included all phase 1b patients who received ≥ 1 dose of study drug.

With `COCCNCc1ccc(-c2cc3nccc(Oc4ccc(NC(=O)C5(C(=O)Nc6ccc(F)cc6)CC5)cc4F)c3s2)nc1` [sitravatinib, Sitravatinib] the “ALT increased TRAE, any grade” value was 18 (18.2) n (%), the “ALT increased TRAE, grade ≥3” value was 2 (2.0) n (%) and the “AST increased TEAE, any grade” value was 26 (26.3) n (%). The “AST increased TEAE, grade ≥3” value was 3 (3.0) n (%), the “AST increased TRAE, any grade” value was 20 (20.2) n (%) and the “AST increased TRAE, grade ≥3” value was 2 (2.0) n (%). For the same compound, the “Abdominal pain TEAE, any grade” value was 26 (26.3) n (%), the “Abdominal pain TEAE, grade ≥3” value was 2 (2.0) n (%) and the “Abdominal pain TRAE, any grade” value was 14 (14.1) n (%). The “Abdominal pain TRAE, grade ≥3” value was 0 n (%), the “Anemia TEAE, any grade” value was 23 (23.2) n (%) and the “Anemia TEAE, grade ≥3” value was 8 (8.1) n (%). The “Any TEAE” value was 99 (100.0) n (%), the “Any TRAE” value was 92 (92.9) n (%) and the “Asthenia TEAE, any grade” value was 9 (9.1) n (%). The “Asthenia TEAE, grade ≥3” value was 0 n (%), the “Back pain TEAE, any grade” value was 18 (18.2) n (%) and the “Back pain TEAE, grade ≥3” value was 3 (3.0) n (%). The “Blood and lymphatic system disorders TEAE, any grade” value was 27 (27.3) n (%), the “Blood and lymphatic system disorders TEAE, grade ≥3” value was 11 (11.1) n (%) and the “Blood creatinine increased TEAE, any grade” value was 15 (15.2) n (%). For the same compound, the “Blood creatinine increased TEAE, grade ≥3” value was 0 n (%), the “Cardiac disorders TEAE, any grade” value was 15 (15.2) n (%) and the “Cardiac disorders TEAE, grade ≥3” value was 6 (6.1) n (%). For the same compound, the “Constipation TEAE, any grade” value was 40 (40.4) n (%), the “Constipation TEAE, grade ≥3” value was 0 n (%) and the “Constipation TRAE, any grade” value was 9 (9.1) n (%). For the same compound, the “Constipation TRAE, grade ≥3” value was 0 n (%), the “Cough TEAE, any grade” value was 15 (15.2) n (%) and the “Cough TEAE, grade ≥3” value was 0 n (%). For the same compound, the “Decreased appetite TEAE, any grade” value was 38 (38.4) n (%), the “Decreased appetite TEAE, grade ≥3” value was 1 (1.0) n (%) and the “Decreased appetite TRAE, any grade” value was 27 (27.3) n (%). The “Decreased appetite TRAE, grade ≥3” value was 1 (1.0) n (%), the “Dehydration TEAE, any grade” value was 23 (23.2) n (%) and the “Dehydration TEAE, grade ≥3” value was 4 (4.0) n (%). For the same compound, the “Diarrhea TEAE, any grade” value was 67 (67.7) n (%), the “Diarrhea TEAE, grade ≥3” value was 18 (18.2) n (%) and the “Diarrhea TRAE, any grade” value was 59 (59.6) n (%). The “Diarrhea TRAE, grade ≥3” value was 14 (14.1) n (%), the “Dizziness TEAE, any grade” value was 19 (19.2) n (%) and the “Dizziness TEAE, grade ≥3” value was 0 n (%). For the same compound, the “Dizziness TRAE, any grade” value was 12 (12.1) n (%), the “Dizziness TRAE, grade ≥3” value was 0 n (%) and the “Dry mouth TEAE, any grade” value was 15 (15.2) n (%). For the same compound, the “Dry mouth TEAE, grade ≥3” value was 0 n (%), the “Dry mouth TRAE, any grade” value was 10 (10.1) n (%) and the “Dry mouth TRAE, grade ≥3” value was 0 n (%). The “Dysphonia TEAE, any grade” value was 26 (26.3) n (%), the “Dysphonia TEAE, grade ≥3” value was 0 n (%) and the “Dysphonia TRAE, any grade” value was 13 (13.1) n (%). For the same compound, the “Dysphonia TRAE, grade ≥3” value was 0 n (%), the “Dyspnea TEAE, any grade” value was 19 (19.2) n (%) and the “Dyspnea TEAE, grade ≥3” value was 2 (2.0) n (%). For the same compound, the “Edema peripheral TEAE, any grade” value was 16 (16.2) n (%), the “Edema peripheral TEAE, grade ≥3” value was 0 n (%) and the “Endocrine disorders TEAE, any grade” value was 27 (27.3) n (%). The “Endocrine disorders TEAE, grade ≥3” value was 2 (2.0) n (%), the “Fatigue TEAE, any grade” value was 55 (55.6) n (%) and the “Fatigue TEAE, grade ≥3” value was 9 (9.1) n (%). The “Fatigue TRAE, any grade” value was 49 (49.5) n (%), the “Fatigue TRAE, grade ≥3” value was 7 (7.1) n (%) and the “Gastrointestinal disorders TEAE, any grade” value was 89 (89.9) n (%). For the same compound, the “Gastrointestinal disorders TEAE, grade ≥3” value was 33 (33.3) n (%), the “General disorders and administration site conditions TEAE, any grade” value was 72 (72.7) n (%) and the “General disorders and administration site conditions TEAE, grade ≥3” value was 12 (12.1) n (%). The “Headache TEAE, any grade” value was 18 (18.2) n (%), the “Headache TEAE, grade ≥3” value was 1 (1.0) n (%) and the “Hypertension TEAE, any grade” value was 52 (52.5) n (%). For the same compound, the “Hypertension TEAE, grade ≥3” value was 29 (29.3) n (%), the “Hypertension TRAE, any grade” value was 46 (46.5) n (%) and the “Hypertension TRAE, grade ≥3” value was 24 (24.2) n (%). The “Hypokalemia TEAE, any grade” value was 13 (13.1) n (%), the “Hypokalemia TEAE, grade ≥3” value was 3 (3.0) n (%) and the “Hypomagnesemia TEAE, any grade” value was 17 (17.2) n (%). The “Hypomagnesemia TEAE, grade ≥3” value was 0 n (%), the “Hyponatremia TEAE, any grade” value was 16 (16.2) n (%) and the “Hyponatremia TEAE, grade ≥3” value was 5 (5.1) n (%). For the same compound, the “Hypophosphatemia TEAE, any grade” value was 15 (15.2) n (%).
